{"source": "patent US20260248924A1", "about": "“MITOCHONDRIA-TARGETED AGENTS FOR DISEASE PREVENTION AND TREATMENT” (THE METHODIST HOSPITAL, priority 2023, published 2026)", "key": {"[1]": {"tested_on": "H2030-BrM3 cells", "assay": "Lung cancer brain metastasis model (left ventricle injection)", "format": "in vivo, NOD/SCID mice", "conditions": "PEITC at 25-fold higher dose (printed 100 mol/kg), oral gavage", "procedure": "Mice were imaged for luciferase expression as a marker of tumor growth, using an IVIS 100 imaging system, over five weeks after cell injection. Regions of interest were defined manually, and LivingImage and Igor software was used to determine total photon flux.\nFor the brain metastasis studies, female NOD/SCID mice (age 5 weeks) were used. H2030-BrM3 cells (2×10^5) were suspended in PBS (0.1 mL) and injected into the left ventricle under ultrasound guidance (ECHO 707, GE, Milwaukee, WI). […] Mice were treated by oral gavage 5 days per week and metastases were monitored periodically by bioluminescence. Mice were euthanized at day 28 after the arterial injection of tumor cells."}, "[2]": {"tested_on": "lung tumorigenesis induced by benzo(a)pyrene", "conditions": "in vivo; cited from earlier work"}, "[3]": {"conditions": "human, in vivo; cited from earlier work"}, "[4]": {"tested_on": "H2030-BrM3 cells", "assay": "Orthotopic model of lung adenocarcinoma", "format": "in vivo, nude mice", "conditions": "4 μmol/kg, oral gavage 5 days/week for 3 weeks", "method": "An orthotopic model of lung adenocarcinoma cells (H2030-BrM3 cells) in athymic nude mice was used. Nude mice (5 weeks old) were anesthetized with isoflurane and placed in the right lateral decubitus position. A total of 1×10^6 H2030-BrM3 cells in […] of growth factor reduced Matrigel in 50 μL of RPMI1640 medium were injected into the left lung through the left rib cage. […] Tumor growth and metastases were monitored over time by bioluminescence (after injection of D-luciferin, 150 μg/g) using Lumina IVIS 100 imager (Perkin Elmer, Waltham, MA). Mice were euthanized on day 28.\nA study using an orthotopic model of lung adenocarcinoma in nude mice was conducted. H2030-BrM3 cells were injected into the lung. […] PEITC was not effective, as expected, because the applied dose (4 μmol/kg) is below the levels typically used in xenograft studies (Zhang, Q., et al., Mol Carcinog, 2020. 59(6): p. 590-603)."}, "[5]": {"conditions": "in vivo; cited from earlier work"}, "[6]": {"conditions": "rat, in vivo; cited from earlier work"}, "[7]": {"tested_on": "B(a)P-induced lung tumors", "assay": "B(a)P-induced lung tumorigenesis, post-initiation model", "format": "in vivo, A/J mice", "conditions": "100 μmol/kg, 5 days/week, 20 weeks"}, "[8]": {"tested_on": "VC-induced lung tumors", "assay": "VC-induced lung tumorigenesis study", "format": "in vivo, A/J mice", "conditions": "100 μmol/kg, oral gavage 5 days/week for 20 weeks", "procedure": "Six-week-old female A/J mice were injected with VC (single i.p. dose, 16 mg/kg). […] Treatments were administered by oral gavage five times per week. After 18 weeks of treatment, the mice were euthanized. […] The rest of lungs were evaluated under a dissecting microscope to obtain the surface tumor count and individual tumor diameter. Tumor volume was calculated based on the formula V=4πr(3)/3. Tumor load (the total tumor volume in each mouse) was calculated from the sum of all tumors."}, "[9]": {"tested_on": "lung adenocarcinoma (LUAD) cell lines (H2030-BrM3, LKR-13)", "assay": "Cellular proliferation assay (IncuCyte cell confluence), PEITC vs Mito-PEITC", "format": "cell-based", "conditions": "Homo sapiens, real-time cell confluence, both LUAD cell lines tested, read-out: IC50, inhibition of proliferation"}}, "note": "“Also recorded” adds a separate entry of the source."}
{"compound": "S=C=NCCc1ccccc1", "note": "[PEITC, phenethyl isothiocyanate]", "values": [{"measurement": "effect on lung cancer brain metastasis", "setting": "[1]", "value": "ineffective; also recorded: does not inhibit brain metastasis"}, {"measurement": "efficacy against lung tumorigenesis induced by benzo(a)pyrene", "setting": "[2]", "value": "not effective"}, {"measurement": "safety in clinical trial", "setting": "[3]", "value": "safe"}, {"measurement": "effect on orthotopic lung tumor growth", "setting": "[4]", "value": "not effective"}, {"measurement": "blood-brain barrier passage", "setting": "[5]", "value": "crosses the blood-brain barrier"}, {"measurement": "plasma protein binding", "setting": "[5]", "value": "high"}, {"measurement": "toxicity for female rats", "setting": "[6]", "value": "extremely low toxicity"}, {"measurement": "B(a)P-induced lung tumor development", "setting": "[7]", "value": "ineffective"}, {"measurement": "VC-induced lung tumor development", "setting": "[8]", "value": "ineffective"}, {"measurement": "IC50", "setting": "[9]", "value": 12, "unit": "µM"}]}
